Source: ChEMBL document CHEMBL1201862, “PubChem BioAssay data set” (2004)
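Following 48 hours of exposure in 96-well plates, responses at five concentrations were used to interpolate endpoints linearly. GI50: concentration for 50% inhibition of growth.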 Calls of active or inactive are those of the source. Cut-off read from the data, not from the text of the source: active = GI50 up to about 1.1 µM and inactive = higher.

How the values were obtained:
Test in all cases: growth of human tumour cells (NCI), 48 h
A549 = test system: A549
ACHN = test system: ACHN
HCT-15 = test system: HCT-15
KM12 = test system: KM12
MCF7 = test system: MCF7
MDA-N = test system: MDA-N
Malme-3M = test system: Malme-3M
NCI-H226 = test system: NCI-H226
NCI-H23 = test system: NCI-H23
NCI/ADR-RES = test system: NCI/ADR-RES
OVCAR-4 = test system: OVCAR-4
OVCAR-8 = test system: OVCAR-8
PC-3 = test system: PC-3
SF-295 = test system: SF-295
SNB-75 = test system: SNB-75
SW-620 = test system: SW-620
TK-10 = test system: TK-10
UACC-257 = test system: UACC-257
UACC-62 = test system: UACC-62
UO-31 = test system: UO-31

| SMILES | GI50 (A549) | GI50 (ACHN) | GI50 (HCT-15) [µM] | GI50 (KM12) | GI50 (MCF7) | GI50 (MDA-N) | GI50 (Malme-3M) | GI50 (NCI-H226) | GI50 (NCI-H23) | GI50 (NCI/ADR-RES) | GI50 (OVCAR-4) | GI50 (OVCAR-8) | GI50 (PC-3) | GI50 (SF-295) | GI50 (SNB-75) | GI50 (SW-620) | GI50 (TK-10) | GI50 (UACC-257) | GI50 (UACC-62) | GI50 (UO-31) |
| --- | --- | --- | --- | --- | --- | --- | --- | --- | --- | --- | --- | --- | --- | --- | --- | --- | --- | --- | --- | --- |
| CC(=O)OCC1OC(N2C(c3ccccc3)=CC(c3ccccc3)C(C#N)=C2S)C(OC(C)=O)C(OC(C)=O)C1OC(C)=O (centres undefined) | 7.62 µM (inactive) | 5.58 µM (inactive) | 48.5 | 15.7 µM (inactive) | 19.4 µM (inactive) | 2.02 µM (inactive) | 5.43 µM (inactive) | 12.7 µM (inactive) | 7.41 µM (inactive) | 14.3 µM (inactive) | 1.55 µM (inactive) | 3.88 µM (inactive) | 2.77 µM (inactive) | 2.04 µM (inactive) | 10.4 µM (inactive) | 54.7 µM (inactive) | 22.2 µM (inactive) | 3.63 µM (inactive) | 0.583 µM (active) | 19.2 µM (inactive) |
| CC(=O)c1c(-c2ccccc2)c(-c2ccc(OCCN(C)C)cc2)n2ccccc12 | 21.2 µM (inactive) | 15.8 µM (inactive) | 10.7 | 13.5 µM (inactive) | 18 µM (inactive) | 15.8 µM (inactive) | 11.9 µM (inactive) | 15.2 µM (inactive) | 18.7 µM (inactive) | 14.5 µM (inactive) | 24.8 µM (inactive) | 14.9 µM (inactive) | 16.2 µM (inactive) | 17.2 µM (inactive) | 12.4 µM (inactive) | 17.9 µM (inactive) | 17 µM (inactive) | 15.5 µM (inactive) | 15.7 µM (inactive) | 16.7 µM (inactive) |
| OCc1cccc(Nc2nc(O)c3[nH]cnc3n2)c1 | > 100 µM (inactive) | > 100 µM (inactive) | > 100 | > 100 µM (inactive) | > 100 µM (inactive) | > 100 µM (inactive) | > 100 µM (inactive) | > 100 µM (inactive) | > 100 µM (inactive) | > 100 µM (inactive) | > 100 µM (inactive) | > 100 µM (inactive) | > 100 µM (inactive) | > 100 µM (inactive) | > 100 µM (inactive) | > 100 µM (inactive) | > 100 µM (inactive) | > 100 µM (inactive) | > 100 µM (inactive) | > 100 µM (inactive) |
| CC(=O)O[C@H]1C(=O)[C@@]2(C)[C@H]([C@H](OC(=O)c3ccccc3)[C@@]3(O)C[C@H](O)C(C)=C1C3(C)C)[C@]1(OC(C)=O)CO[C@@H]1C[C@@H]2O | 73.3 µM (inactive) | > 100 µM (inactive) | 53.3 | 15.2 µM (inactive) | 30.4 µM (inactive) | 4.55 µM (inactive) | > 100 µM (inactive) | 86.5 µM (inactive) | 39.1 µM (inactive) | > 100 µM (inactive) | > 100 µM (inactive) | 31.2 µM (inactive) | 28 µM (inactive) | 37.5 µM (inactive) | 11.2 µM (inactive) | 14.6 µM (inactive) | 83.2 µM (inactive) | 83.6 µM (inactive) | 36 µM (inactive) | 82 µM (inactive) |
| Nc1nc(=O)n(C2CC(O)C(CO)O2)c2nc(-c3ccc(-c4ccccc4)cc3)cnc12 (centres undefined) | > 100 µM (inactive) | > 100 µM (inactive) | > 100 | > 10 µM (inactive) | 15.5 µM (inactive) | 58.2 µM (inactive) | 41.7 µM (inactive) | 25.6 µM (inactive) | 99.3 µM (inactive) | > 100 µM (inactive) | > 100 µM (inactive) | 67.9 µM (inactive) | 37.6 µM (inactive) | 48.5 µM (inactive) | 23 µM (inactive) | > 100 µM (inactive) | > 100 µM (inactive) | > 100 µM (inactive) | 25.3 µM (inactive) | > 100 µM (inactive) |
| CCOC(=O)C(NC(=O)c1ccco1)(Nc1nc2ccc(OCC)cc2s1)C(F)(F)F (centres undefined) | 28.8 µM (inactive) | 26.8 µM (inactive) | 22.9 | 21.8 µM (inactive) | 25.4 µM (inactive) | 21.6 µM (inactive) | 37.2 µM (inactive) | 35.1 µM (inactive) | 27.3 µM (inactive) | 25.8 µM (inactive) | 30.1 µM (inactive) | 43.9 µM (inactive) | 25.3 µM (inactive) | 43.1 µM (inactive) | 19.8 µM (inactive) | 61.5 µM (inactive) | 50.1 µM (inactive) | 28.4 µM (inactive) | 35.6 µM (inactive) | 4.22 µM (inactive) |
| COc1ccc2c(c1)N(CCC1CCCCN1C)c1ccccc1S2 (centres undefined) [OXYRIDAZINE] | 14.1 µM (inactive) | 13.8 µM (inactive) | 13.4 | 10.8 µM (inactive) | 11.4 µM (inactive) | 12 µM (inactive) | 18.2 µM (inactive) | 23.6 µM (inactive) | 17.1 µM (inactive) | 12 µM (inactive) | 11.1 µM (inactive) | 15 µM (inactive) | 10.8 µM (inactive) | 16 µM (inactive) | 11.6 µM (inactive) | 14.7 µM (inactive) | 14.5 µM (inactive) | 5.08 µM (inactive) | 12.6 µM (inactive) | – |
